Assay results as given in article PMC7648750, “In vitro and in vivo BNCT investigations using a carborane containing sulfonamide targeting CAIX epitopes on malignant pleural mesothelioma and breast cancer cells” (Scientific Reports, 2020).

Assays:
MCF7 cells [1] = assay: Proliferation assay of cells surviving irradiation; assay type: cell-based, human; conditions: MCF7, 72 µM CA-SF before neutron irradiation
Procedure: (§1) 75 flasks of MCF7 (4 flasks), ZL34 (4 flasks) and AB22 (4 flasks) were seeded at a density of 1.8 × 10^6 cells, 1.2 × 10^6 cells and 5.5 × 10^5 cells, respectively. 24 h later for MCF7 and ZL34 and 72 h later for AB22, 2 flasks of each cell lines were incubated for 24 h in the presence of 72 µM, 187.5 µM and 130 µM of CA-SF, respectively. After the incubation, cells were washed with PBS and their medium was renewed. Two flasks of MCF7, ZL34 and AB22 cells incubated with CA-SF and two flasks containing non-treated control cells were irradiated for 15′ at 30 kW reactor power in the thermal column of the TRIGA Mark II reactor at the University of Pavia, Italy. […]
(§2) Then, around 7 × 10^5 MCF7, 3.5 × 10^5 ZL34 and 1 × 10^5 AB22 cells from each differently treated flask were seeded in 10 cm diameter culture dishes. […] Then, cells were sonicated for 30 s at 30% power in ice and the total cell protein concentration (that is proportional to the number of cells) from cell lysates was determined by the Bradford method, using bovine serum albumin as a standard. The Cell Growth Rate was calculated as follows: Number of cellsti-Number of cellst0/Number of cellst0×100 for which Number of cells (ti) is the number of cells measured at the various time intervals and the number of cells (t0) is the number of cells at the starting point (t = 0) of the proliferation assay.

ZL34 cells [2] = assay: Proliferation assay of cells surviving irradiation; assay type: cell-based, human; conditions: ZL34, 187.5 µM CA-SF before neutron irradiation
Procedure: as §1, §2

MCF7 cells [3] = assay: MTT cell vitality assay; assay type: cell-based, human; conditions: normoxia
Procedure: (§3) The MTT assay is based on the reduction in the mitochondria of metabolically active cells by succinate dehydrogenase obtaining a precipitation of purple formazan crystal. The assay was carried out using the same protocol reported by Azzi et al[42]. Briefly, AB22, ZL34 and MCF7 cells were seeded at a density of 7 × 10^3, 5 × 10^3 and 1 × 10^4 cells per well, respectively, in a 96-well microtiter plate. After 24 h at 37 °C and 5% CO2, they were incubated with increasing concentration of CA-SF or AZ for 24 h in a condition of normoxia at 37 °C and 5% CO2 by adding stock solutions in dimethyl sulfoxide (DMSO). In all the conditions the concentration of DMSO during the cell incubation was maintained under 0.25% (v/v) in cell medium. After the incubation, the medium was removed and each well was incubated with thiazolyl blue tetrazolium bromide (Sigma) dissolved in the medium at a concentration of 0.45 mg/mL for 4 h at 37 °C and 5% CO2. Then, after medium elimination, 150 µL of DMSO were added into each well to solubilise the formazan salt crystals produced by the metabolism of live cells and the microplate was incubated at room temperature (RT) for 30 min. Finally, absorbance was measured at 570 nm using an iMark microplate reader (Biorad). Cell vitality was reported as the percentage of […] cells observed in the treated samples relative to that observed in the non-treated control cells.

ZL34 cells [4] = assay: MTT cell vitality assay; assay type: cell-based, human; conditions: normoxia
Procedure: as §3

[5] = Mice weight monitoring after treatment; assay type: in vivo, Balb/c mice
Procedure: CA-SF treatment on mesothelioma bearing mice, were performed in the thermal column of the TRIGA Mark II reactor at Pavia University (Italy) using the same protocol reported in reference^35. The irradiation facility was previously designed for TAOrMINA treatment developed to treat multiple liver metastases with BNCT. The chamber used to perform animal irradiation has a cross section of 40 × 20 cm^2, a length of 1 m and it starts at about 1.3 m from the center of the reactor core. The animal irradiation position has been characterised in terms of neutron spectrum and background photon dose[43]. To carry out neutron irradiation animals are positioned at the end of this chamber where the in air thermal neutron flux is approximately 1.2 × 10^10 n/cm^2s, operating the reactor at its maximum power. In this way the thermal neutron flux is maximised and the irradiation time is kept as short as possible (never longer than 15 min). The first mice group (irradiated and treated group, n = 5) received three doses of CA-SF/poli β cyclodextrin (37.5 mg boron/kg dose) prepared as described before. […]
The weight of IRR, CA-SF and CA-SF + IRR groups was monitored till the end of the experiment (Supplementary Figure S1).

[6] = Solubility in aqueous media; assay type: physicochemical

## 1-Sulfonamidomethyl-o-carborane [CA-SF]
MCF7 cells [1]
  proliferation rate of cells surviving to irradiation: marked inhibition of proliferation
ZL34 cells [2]
  proliferation rate of cells surviving to irradiation: marked inhibition of proliferation
MCF7 cells [3]; MCF7, 72 µM CA-SF, 24 h, 37 °C
  cell vitality measured by MTT: about 80%
MCF7 cells [3]; MCF7, 24 h, Fig. 3
  percentage of viable cells with increasing concentration (MTT): steadily decreases
ZL34 cells [4]; ZL34, 187.5 µM CA-SF, 24 h, 37 °C
  cell vitality measured by MTT: about 80%
ZL34 cells [4]; ZL34, 24 h, Fig. 3
  percentage of viable cells with increasing concentration (MTT): steadily decreases
[5]; treated and irradiated mice, CA-SF three doses + 15 min irradiation 250 kW
  loss of initial weight: 10%
[5]; treated mice (CA-SF, not irradiated)
  weight decrease at the end of the study: 5%
[6]
  solubility in aqueous media: low
